# Laboratory results reported in ChEMBL document CHEMBL1135302, “Optimization of the 4-aryl group of 4-aryl-pyridine glucagon antagonists: development of an efficient, alternative synthesis” (Bioorg Med Chem Lett, 2002).
# Molecular target: T1, Glucagon receptor (Homo sapiens, UniProt P47871)
# Assay: Percentage inhibition of human glucagon receptor function expressed in CHO cells at a concentration of 20 uM.
# Format: cell-based
# T1 sequence (P47871 whole entry): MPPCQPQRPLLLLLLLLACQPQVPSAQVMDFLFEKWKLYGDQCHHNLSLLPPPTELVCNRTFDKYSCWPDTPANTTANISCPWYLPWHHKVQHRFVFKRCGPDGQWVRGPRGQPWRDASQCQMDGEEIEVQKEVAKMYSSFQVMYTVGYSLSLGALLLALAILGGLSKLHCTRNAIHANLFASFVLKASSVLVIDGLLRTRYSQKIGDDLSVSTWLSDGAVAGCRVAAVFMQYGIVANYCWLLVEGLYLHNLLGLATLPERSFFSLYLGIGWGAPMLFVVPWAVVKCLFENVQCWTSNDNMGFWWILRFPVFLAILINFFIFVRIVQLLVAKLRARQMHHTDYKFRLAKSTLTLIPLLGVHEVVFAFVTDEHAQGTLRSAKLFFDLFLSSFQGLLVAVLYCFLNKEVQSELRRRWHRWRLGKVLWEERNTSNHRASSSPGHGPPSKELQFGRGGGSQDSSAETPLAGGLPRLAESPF
row,SMILES,inhibition
1,CCCCCc1c(C(C)C)nc(C(C)C)c(CO)c1-c1ccc2c(c1)CCCC2,37%
2,CCCCCc1c(C(C)C)nc(C(C)C)c(CO)c1-c1ccccc1NC(C)=O,13%
3,CCCCCc1c(C(C)C)nc(C(C)C)c(CO)c1-c1ccc(-c2ccccc2)cc1,2%
4,CCCCCc1c(C(C)C)nc(C(C)C)c(C)c1-c1ccccc1O,11%
5,CCCCCc1c(C(C)C)nc(C(C)C)c(CO)c1-c1ccccc1C,33%
6,CCCCCc1c(C(C)C)nc(C(C)C)c(CO)c1-c1ccccc1OC,27%
7,CCCCCc1c(C(C)C)nc(C(C)C)c(CO)c1-c1ccccc1CO,44%
8,CCCCCc1c(C(C)C)nc(C(C)C)c(CO)c1-c1ccc(Cl)cc1Cl,8%
9,CCCCCc1c(C(C)C)nc(C(C)C)c(CO)c1-c1cccc(Cl)c1,49%
10,CCCCCc1c(C(C)C)nc(C(C)C)c(CO)c1-c1cccc2ccccc12,6%
11,CCCCCc1c(C(C)C)nc(C(C)C)c(CO)c1-c1cccc(C(F)(F)F)c1,25%
12,CCCCCc1c(C(C)C)nc(C(C)C)c(CO)c1-c1ccc2ccccc2c1,16%
13,CCCCCc1c(C(C)C)nc(C(C)C)c(CO)c1-c1cccc(C)c1,46%

# Results, then the molecule that gave them:
row,inhibition,SMILES
1,39%,CCC/C=C/c1c(C(C)C)nc(C(C)C)c(CO)c1-c1ccc(Cl)c(Cl)c1
2,24%,CCCCCc1c(C(C)C)nc(C(C)C)c(CO)c1-c1ccc(O)cc1
3,35%,CCCCCc1c(C(C)C)nc(C(C)C)c(CO)c1-c1ccc(C(F)(F)F)cc1
4,34%,CCCCCc1c(C(C)C)nc(C(C)C)c(CO)c1-c1ccc(C(C)C)cc1
5,37%,CCCCCc1c(C(C)C)nc(C(C)C)c(CO)c1-c1ccc(OC)cc1
6,42%,CCCCCc1c(C(C)C)nc(C(C)C)c(CO)c1-c1ccc(CC)cc1
7,14%,CCC/C=C/c1c(C(C)C)nc(C(C)C)c(CO)c1-c1ccc(S(C)(=O)=O)cc1

# Molecular target: T1, Glucagon receptor
# Assay: biochemical
# Description: Tested for its inhibitory activity against human glucagon receptor (hGR) expressed in CHO cells
row,IC50,SMILES
1,0.19 µM,CCCCCc1c(C(C)C)nc(C(C)C)c(CO)c1-c1ccc(F)cc1O
2,7 µM,CC(C)=Cc1c(C(C)C)nc(C(C)C)c(O)c1-c1ccc(F)cc1
3,48 µM,CCCCCc1c(C(C)C)nc(C(C)C)c(CO)c1-c1cccc(OC)c1
4,19 µM,CCCCCc1c(C(C)C)nc(C(C)C)c(CO)c1-c1ccc(F)c(CO)c1
5,2.3 µM,CCCCCc1c(C(C)C)nc(C(C)C)c(CO)c1-c1ccccc1N
6,11 µM,CCCCCc1c(C(C)C)nc(C(C)C)c(CO)c1-c1ccc(F)cc1F

# Molecular target: T1, Glucagon receptor
# Assay: Tested for its ability to inhibit cAMP production in human glucagon receptor expressed CHO cells
# Format: functional, cell-based
row,IC50,SMILES
1,0.12 µM,CCCCCc1c(C(C)C)nc(C(C)C)c(CO)c1-c1ccc(F)cc1O
2,0.4 µM,CCCCCc1c(C(C)C)nc(C(C)C)c(CO)c1-c1ccc(F)cc1
